assay: Inhibitory concentration required against protein phosphatase 1 using pNPP assay

Compound	IC50 [µM]
COC(=O)[C@@H](CCC(=O)N(C)C)NC(=O)[C@@H](C)[C@H](/C=C/C(C)=C/[C@H](C)[C@H](Cc1ccccc1)OC)NC(C)=O [(R)-2-((4E,6E)-(2S,3S,8S,9S)-3-Acetylamino-9-methoxy-2,6,8-trimethyl-10-phenyl-deca-4,6-dienoylamino)-4-dimethylcarbamoyl-butyric acid methyl ester]	> 100
CO[C@@H](Cc1ccccc1)[C@@H](C)/C=C(C)/C=C/[C@H](NC(C)=O)[C@H](C)C(=O)N[C@H](CCC(=O)N(C)C)C(=O)O [(R)-2-((4E,6E)-(2S,3S,8S,9S)-3-Acetylamino-9-methoxy-2,6,8-trimethyl-10-phenyl-deca-4,6-dienoylamino)-4-dimethylcarbamoyl-butyric acid]	> 100
CO[C@@H](Cc1ccccc1)[C@@H](C)/C=C(C)/C=C/[C@H](NC(C)=O)[C@H](C)C(=O)N[C@H](CCC(=O)N(C)CC(=O)N[C@H](C)C(=O)O)C(=O)O [(R)-2-((4E,6E)-(2S,3S,8S,9S)-3-Acetylamino-9-methoxy-2,6,8-trimethyl-10-phenyl-deca-4,6-dienoylamino)-4-{[((R)-1-carboxy-ethylcarbamoyl)-methyl]-methyl-carbamoyl}-butyric acid]	400
CO[C@@H](Cc1ccccc1)[C@@H](C)/C=C(C)/C=C/[C@H](NC(C)=O)[C@H](C)C(=O)N[C@H](CCC(=O)N(C)CC(=O)N[C@H](C)C(=O)N[C@@H](CC(C)C)C(=O)O)C(=O)O [(S)-2-[(R)-2-(2-{[(R)-4-((4E,6E)-(2S,3S,8S,9S)-3-Acetylamino-9-methoxy-2,6,8-trimethyl-10-phenyl-deca-4,6-dienoylamino)-4-carboxy-butyryl]-methyl-amino}-acetylamino)-1-oxo-propylamino]-4-methyl-pentanoic acid]	230
C=C(C(=O)N[C@H](C)C(=O)N[C@@H](CC(C)C)C(=O)O)N(C)C(=O)CC[C@@H](NC(=O)[C@@H](C)[C@H](/C=C/C(C)=C/[C@H](C)[C@H](Cc1ccccc1)OC)NC(C)=O)C(=O)O [(S)-2-[(R)-2-(2-{[(R)-4-((4E,6E)-(2S,3S,8S,9S)-3-Acetylamino-9-methoxy-2,6,8-trimethyl-10-phenyl-deca-4,6-dienoylamino)-4-carboxy-butyryl]-methyl-amino}-acryloylamino)-1-oxo-propylamino]-4-methyl-pentanoic acid]	75

Reference: BindingDB's records for doi:10.1016/s0960-894x(03)00589-4 (University of California Irvine, 2003)
